# Measurements: PMC4721923 (PLoS ONE, 2015)
# Read-outs that look alike come from different tables or passages of the source.
# Key:
# [1] = system: p53 in various tumor cell types; set-up: method as in PMID 17653574; conditions: cited from earlier work
# Jurkat cells = system: Jurkat cells; set-up: method as in Hiraoka et al. 50; conditions: ref Hiraoka et al. 50; cited from earlier work
# myeloma cells = system: myeloma cells; set-up: method as in PMID 17653574, PMID 23380051; conditions: cited from earlier work
# [2] = plasma, intravenous administration, cited from earlier work
# OCT3 = molecular target: T1, OCT3 (Homo sapiens, UniProt O75751); test: Confocal laser scanning microscopy of ASP+ uptake, HEK-OCT3; type: cell-based; conditions: compound 5 15 μM; TPA 200 μM; ASP+ 1 μM
# T1 construct: expressed in transfected cells; host or cells: HEK293 (HEK-OCT3)
# T1 sequence (O75751 1-556): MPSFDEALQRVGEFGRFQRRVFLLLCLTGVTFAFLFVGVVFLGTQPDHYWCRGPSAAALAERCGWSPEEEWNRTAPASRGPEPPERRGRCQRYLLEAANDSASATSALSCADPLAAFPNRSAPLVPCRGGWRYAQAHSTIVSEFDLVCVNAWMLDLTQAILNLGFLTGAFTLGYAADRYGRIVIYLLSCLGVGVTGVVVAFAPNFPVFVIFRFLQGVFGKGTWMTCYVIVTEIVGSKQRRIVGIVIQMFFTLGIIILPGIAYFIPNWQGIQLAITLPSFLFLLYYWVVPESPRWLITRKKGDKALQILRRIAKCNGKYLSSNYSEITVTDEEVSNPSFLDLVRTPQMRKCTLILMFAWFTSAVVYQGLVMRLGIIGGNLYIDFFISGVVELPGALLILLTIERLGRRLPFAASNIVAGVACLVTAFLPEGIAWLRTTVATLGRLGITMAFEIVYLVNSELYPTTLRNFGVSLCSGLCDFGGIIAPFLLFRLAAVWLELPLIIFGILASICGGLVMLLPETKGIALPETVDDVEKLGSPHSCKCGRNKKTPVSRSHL
# Experimental: (§1) HEK-Co, HEK-OCT1 and HEK-OCT3 cells were seeded into 8-well μ-Slides (Ibidi, Munich, Germany) (2 · 10^4 cells/well) and allowed to attach for 48 hours. Prior to the staining procedure, the medium was replaced by PBS and the DNA probe Draq5 (5 μM) (Biostatus, Shepshed, UK) was added to each well. […] Subsequently, ASP^+ was added to reach a concentration of 1 μM, and the cells were incubated for 5 minutes in the dark. Imaging was performed with an Axiovert 200 M confocal microscope coupled to a Zeiss LSM 510 scanning device (Carl Zeiss, Oberkochen, Germany) using a Plan-Apochromat 63x/1.40 oil immersion objective. Draq5 was excited at 633 nm and fluorescence was detected using a 650 nm long-pass filter, ASP^+ was excited at 488 nm and detected using a 565/35 nm band-pass filter.
# OCT1 = molecular target: T2, OCT1 (Homo sapiens, UniProt O15245); test: Confocal laser scanning microscopy of ASP+ uptake, HEK-OCT1; type: cell-based; conditions: compound 5 15 μM; TPA 200 μM; ASP+ 1 μM
# T2 construct: containing the full length SLC22A1 cDNA (NM_003057) encoding the human OCT1 protein; expressed in transfected cells
# T2 sequence (O15245 1-554): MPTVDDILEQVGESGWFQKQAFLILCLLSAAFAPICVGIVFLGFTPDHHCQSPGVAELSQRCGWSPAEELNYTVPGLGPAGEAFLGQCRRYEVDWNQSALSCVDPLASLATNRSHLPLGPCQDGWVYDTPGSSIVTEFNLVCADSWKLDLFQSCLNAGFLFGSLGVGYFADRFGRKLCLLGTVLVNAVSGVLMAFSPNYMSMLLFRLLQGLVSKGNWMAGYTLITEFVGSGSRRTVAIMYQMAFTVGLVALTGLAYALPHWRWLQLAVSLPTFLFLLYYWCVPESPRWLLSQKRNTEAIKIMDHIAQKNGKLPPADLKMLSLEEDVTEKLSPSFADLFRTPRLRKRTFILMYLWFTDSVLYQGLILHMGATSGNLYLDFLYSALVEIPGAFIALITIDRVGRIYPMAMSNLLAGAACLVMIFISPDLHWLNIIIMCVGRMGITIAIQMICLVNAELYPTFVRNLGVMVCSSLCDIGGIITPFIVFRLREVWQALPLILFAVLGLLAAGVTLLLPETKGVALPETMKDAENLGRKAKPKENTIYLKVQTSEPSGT
# Experimental: as §1
Structure (SMILES),concentration required for significant induction of p53 expression [1],IC50 (Jurkat cells),IC50 (myeloma cells),"Cmax ([2]; converted, ref 51)","Cmax ([2]; converted, ref 52)",Cmax ([2]; ref 51),Cmax ([2]; ref 52),"effect on OCT3 activity (ASP+ uptake, imaging) (OCT3)","effect on OCT1 activity (ASP+ uptake, imaging) (OCT1)"
"Cn1c(CCCC(=O)O)nc2cc(N(CCCl)CCCl)ccc21 [Compound 1, bendamustine, reference compound]",≥ 80 µM,~50 µM,~100 µM,~17 µM,~31 µM,6000 ng/mL,11000 ng/mL,–,–
Cn1c(CCCC(=O)OCCN2CCCC2)nc2cc(N(CCCl)CCCl)ccc21 [Compound 5],–,–,–,–,–,–,–,inhibited,inhibited
